Source: patent publication US9695155B2, “Herbicidal substituted pyrimidinyloxy benzene compounds” (E. I. DU PONT DE NEMOURS AND COMPANY, priority 2013, dated 2017)

What was measured:
velvetleaf = test: Test E preemergence; assay type: in vivo, Abutilon theophrasti; settings: for Velvetleaf plant response rating: scale 0 to 100 (0 no effect, 100 complete control); for Plant response rating, Velvetleaf: scale 0 to 100, 0 no effect, 100 complete control
Procedure, shortened: (§1)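 Response was scored visually on a 0-100 scale (100 = complete control) versus controls after 14 to 21 days in the greenhouse. Test chemicals, formulated with surfactant in a non-phytotoxic solvent mixture, had been applied preemergence to seeds in silt loam soil or postemergence to 1- to 4-leaf plants in potting medium.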

lambsquarters = test: Test E preemergence; assay type: in vivo, Chenopodium album; settings: for Lambsquarters plant response rating: scale 0 to 100 (0 no effect, 100 complete control); for Plant response rating, Lambsquarters: scale 0 to 100, 0 no effect, 100 complete control
Procedure, shortened: as §1

surinam grass = test: Test E preemergence; assay type: in vivo, Brachiaria decumbens; settings: for Surinam Grass plant response rating: scale 0 to 100 (0 no effect, 100 complete control); for Plant response rating, Surinam Grass: scale 0 to 100, 0 no effect, 100 complete control
Procedure, shortened: as §1

Brazilian crabgrass [1] = test: Test E preemergence; assay type: in vivo, Digitaria horizontalis; settings: for Crabgrass, Brazil plant response rating: scale 0 to 100 (0 no effect, 100 complete control); for Plant response rating, Crabgrass, Brazil: scale 0 to 100, 0 no effect, 100 complete control
Procedure, shortened: as §1

fall panicum = test: Test E preemergence; assay type: in vivo, Panicum dichotomiflorum; settings: for Panicum, Fall plant response rating: scale 0 to 100 (0 no effect, 100 complete control); for Plant response rating, Panicum, Fall: scale 0 to 100, 0 no effect, 100 complete control
Procedure, shortened: as §1

giant foxtail = test: Test E preemergence; assay type: in vivo, Setaria faberii; settings: for Foxtail, Giant plant response rating: scale 0 to 100 (0 no effect, 100 complete control); for Plant response rating, Foxtail, Giant: scale 0 to 100, 0 no effect, 100 complete control
Procedure, shortened: as §1

green foxtail = test: Test E preemergence; assay type: in vivo, Setaria viridis; settings: for Foxtail, Green plant response rating: scale 0 to 100 (0 no effect, 100 complete control); for Plant response rating, Foxtail, Green: scale 0 to 100, 0 no effect, 100 complete control
Procedure, shortened: as §1

barnyardgrass [2] = test: Test E preemergence; assay type: in vivo, Echinochloa crus-galli; settings: for Barnyardgrass plant response rating: scale 0 to 100 (0 no effect, 100 complete control); for Plant response rating, Barnyardgrass: scale 0 to 100, 0 no effect, 100 complete control
Procedure, shortened: as §1

morningglory = test: Test E preemergence; assay type: in vivo, Ipomoea coccinea; settings: for Morningglory plant response rating: scale 0 to 100 (0 no effect, 100 complete control); for Plant response rating, Morningglory: scale 0 to 100, 0 no effect, 100 complete control
Procedure, shortened: as §1

nightshade = test: Test E preemergence; assay type: in vivo, Solanum ptycanthum; settings: for Nightshade plant response rating: scale 0 to 100 (0 no effect, 100 complete control); for Plant response rating, Nightshade: scale 0 to 100, 0 no effect, 100 complete control
Procedure, shortened: as §1

kochia = test: Test E preemergence; assay type: in vivo, Kochia scoparia; settings: for Kochia plant response rating: scale 0 to 100 (0 no effect, 100 complete control); for Plant response rating, Kochia: scale 0 to 100, 0 no effect, 100 complete control
Procedure, shortened: as §1

corn = test: Test E postemergence; assay type: in vivo, Zea mays; settings: Zea mays, post-emergence
Procedure, shortened: as §1

palmer pigweed = test: Test E postemergence; assay type: in vivo, Amaranthus palmeri; settings: post-emergence, read-out: Plant response rating, Pigweed, Palmer
Procedure, shortened: as §1

Brazilian crabgrass [3] = test: Test E postemergence; assay type: in vivo, Digitaria horizontalis; settings: Digitaria horizontalis, post-emergence, read-out: Plant response rating, Crabgrass, Brazil
Procedure, shortened: as §1

arrowleaf sida = test: Test E postemergence; assay type: in vivo, Sida rhombifolia; settings: Sida rhombifolia, post-emergence, read-out: Plant response rating, Arrowleaf Sida
Procedure, shortened: as §1

Italian ryegrass = test: Test E postemergence; assay type: in vivo, Lolium multiflorum; settings: Lolium multiflorum, post-emergence, read-out: Plant response rating, Ryegrass, Italian
Procedure, shortened: as §1

hairy beggarticks = test: Test E postemergence; assay type: in vivo, Bidens pilosa; settings: Bidens pilosa, post-emergence, read-out: Plant response rating, Beggarticks
Procedure, shortened: as §1

barnyardgrass [4] = test: Test C flooded paddy test; assay type: in vivo, Echinochloa crus-galli; settings: Flood, scale 0 to 100 (0 no effect, 100 complete control), 13 to 15 days
Procedure, shortened: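 Compound was added to standing water 3 cm above soil, flood maintained, and plants held in a greenhouse before visual scoring against controls at 13 to 15 days.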

[5] = Postemergence, 31 g ai/ha, scale 0 to 100
[6] = Postemergence, 62 g ai/ha, scale 0 to 100
[7] = Postemergence, 125 g ai/ha, scale 0 to 100
[8] = postemergence, 16 g ai/ha, scale 0 to 100, 0 no effect, 100 complete control

N#Cc1cccc(Oc2ncc(Cl)cn2)c1-n1cc(Br)cn1 [Compound 52, 2-(4-bromo-1H-pyrazol-1-yl)-3-[(5-chloro-2-pyrimidinyl)oxy]benzonitrile]
Velvetleaf plant response rating (velvetleaf; 16 g ai/ha): 0
Velvetleaf plant response rating (velvetleaf; 31 g ai/ha): 0
Velvetleaf plant response rating (velvetleaf; 62 g ai/ha): 75
Plant response rating, Velvetleaf (velvetleaf; 125 g ai/ha): 85
Plant response rating, Velvetleaf (velvetleaf; 250 g ai/ha): 90
Lambsquarters plant response rating (lambsquarters; 16 g ai/ha): 0
Lambsquarters plant response rating (lambsquarters; 31 g ai/ha): 75
Lambsquarters plant response rating (lambsquarters; 62 g ai/ha): 98
Plant response rating, Lambsquarters (lambsquarters; 125 g ai/ha): 98
Plant response rating, Lambsquarters (lambsquarters; 250 g ai/ha): 100
Surinam Grass plant response rating (surinam grass; 16 g ai/ha): 0
Surinam Grass plant response rating (surinam grass; 31 g ai/ha): 0
Surinam Grass plant response rating (surinam grass; 62 g ai/ha): 0
Plant response rating, Surinam Grass (surinam grass; 125 g ai/ha): 10
Plant response rating, Surinam Grass (surinam grass; 250 g ai/ha): 10
Crabgrass, Brazil plant response rating (Brazilian crabgrass [1]; 16 g ai/ha): 0
Crabgrass, Brazil plant response rating (Brazilian crabgrass [1]; 31 g ai/ha): 90
Crabgrass, Brazil plant response rating (Brazilian crabgrass [1]; 62 g ai/ha): 100
Plant response rating, Crabgrass, Brazil (Brazilian crabgrass [1]; 125 g ai/ha): 100
Plant response rating, Crabgrass, Brazil (Brazilian crabgrass [1]; 250 g ai/ha): 100
Panicum, Fall plant response rating (fall panicum; 16 g ai/ha): 0
Panicum, Fall plant response rating (fall panicum; 31 g ai/ha): 0
Panicum, Fall plant response rating (fall panicum; 62 g ai/ha): 100
Plant response rating, Panicum, Fall (fall panicum; 125 g ai/ha): 100
Plant response rating, Panicum, Fall (fall panicum; 250 g ai/ha): 100
Foxtail, Giant plant response rating (giant foxtail; 16 g ai/ha): 0
Foxtail, Giant plant response rating (giant foxtail; 31 g ai/ha): 70
Foxtail, Giant plant response rating (giant foxtail; 62 g ai/ha): 70
Plant response rating, Foxtail, Giant (giant foxtail; 125 g ai/ha): 100
Plant response rating, Foxtail, Giant (giant foxtail; 250 g ai/ha): 100
Foxtail, Green plant response rating (green foxtail; 16 g ai/ha): 0
Foxtail, Green plant response rating (green foxtail; 31 g ai/ha): 20
Foxtail, Green plant response rating (green foxtail; 62 g ai/ha): 75
Plant response rating, Foxtail, Green (green foxtail; 125 g ai/ha): 80
Plant response rating, Foxtail, Green (green foxtail; 250 g ai/ha): 100
Barnyardgrass plant response rating (barnyardgrass [2]; 16 g ai/ha, preemergence): 0
Barnyardgrass plant response rating (barnyardgrass [2]; 31 g ai/ha, preemergence): 0
Plant response rating, Barnyardgrass (barnyardgrass [2]; Preemergence, 62 g ai/ha): 30
Plant response rating, Barnyardgrass (barnyardgrass [2]; preemergence, 125 g ai/ha): 75
Plant response rating, Barnyardgrass (barnyardgrass [2]; preemergence, 250 g ai/ha): 98
Morningglory plant response rating (morningglory; 16 g ai/ha): 0
Morningglory plant response rating (morningglory; 31 g ai/ha): 5
Morningglory plant response rating (morningglory; 62 g ai/ha): 35
Plant response rating, Morningglory (morningglory; 125 g ai/ha): 95
Plant response rating, Morningglory (morningglory; 250 g ai/ha): 98
Nightshade plant response rating (nightshade; 16 g ai/ha): 0
Nightshade plant response rating (nightshade; 31 g ai/ha): 0
Nightshade plant response rating (nightshade; 62 g ai/ha): 75
Plant response rating, Nightshade (nightshade; 125 g ai/ha): 98
Plant response rating, Nightshade (nightshade; 250 g ai/ha): 100
Kochia plant response rating (kochia; 31 g ai/ha): 25
Kochia plant response rating (kochia; 62 g ai/ha): 65
Plant response rating, Kochia (kochia; 125 g ai/ha): 100
Plant response rating, Kochia (kochia; 250 g ai/ha): 100
corn plant response (injury) rating, 0-100 at 31 g/ha (corn; [5]): 10%
corn plant response (injury) rating, 0-100 at 62 g/ha (corn; [6]): 20%
corn plant response (injury) rating, 0-100 at 125 g/ha (corn; [7]): 25%
corn plant response (injury) rating, 0-100 at 16 g/ha (corn; [8]): 10%
pest or weed control at 31 g/ha (palmer pigweed; [5]): 70%
pest or weed control at 62 g/ha (palmer pigweed; [6]): 95%
pest or weed control at 125 g/ha (palmer pigweed; [7]): 95%
pest or weed control at 16 g/ha (palmer pigweed; [8]): 60%
pest or weed control at 31 g/ha (Brazilian crabgrass [3]; [5]): 30%
pest or weed control at 62 g/ha (Brazilian crabgrass [3]; [6]): 30%
pest or weed control at 125 g/ha (Brazilian crabgrass [3]; [7]): 40%
pest or weed control at 16 g/ha (Brazilian crabgrass [3]; [8]): 15%
pest or weed control at 31 g/ha (arrowleaf sida; [5]): 60%
pest or weed control at 62 g/ha (arrowleaf sida; [6]): 70%
pest or weed control at 125 g/ha (arrowleaf sida; [7]): 70%
pest or weed control at 16 g/ha (arrowleaf sida; [8]): 50%
pest or weed control at 31 g/ha (Italian ryegrass; [5]): 0%
pest or weed control at 62 g/ha (Italian ryegrass; [6]): 0%
pest or weed control at 125 g/ha (Italian ryegrass; [7]): 10%
pest or weed control at 16 g/ha (Italian ryegrass; [8]): 0%
pest or weed control at 31 g/ha (hairy beggarticks; [5]): 60%
pest or weed control at 62 g/ha (hairy beggarticks; [6]): 70%
pest or weed control at 125 g/ha (hairy beggarticks; [7]): 75%
pest or weed control at 16 g/ha (hairy beggarticks; [8]): 30%

Fc1cnc(Oc2cccc(C(F)F)c2-n2cc(C(F)(F)F)cn2)nc1 [Compound 164]
Plant response rating, Barnyardgrass (barnyardgrass [4]; 31 g ai/ha): 0
Plant response rating, Barnyardgrass (barnyardgrass [4]; 62 g ai/ha): 0
Plant response rating, Barnyardgrass (barnyardgrass [4]; 125 g ai/ha): 0
Plant response rating, Barnyardgrass (barnyardgrass [4]; 250 g ai/ha): 0
Velvetleaf plant response rating (velvetleaf; 31 g ai/ha): 50
Velvetleaf plant response rating (velvetleaf; 62 g ai/ha): 100
Plant response rating, Velvetleaf (velvetleaf; 125 g ai/ha): 100
Lambsquarters plant response rating (lambsquarters; 31 g ai/ha): 75
Lambsquarters plant response rating (lambsquarters; 62 g ai/ha): 98
Plant response rating, Lambsquarters (lambsquarters; 125 g ai/ha): 100
Surinam Grass plant response rating (surinam grass; 31 g ai/ha): 0
Surinam Grass plant response rating (surinam grass; 62 g ai/ha): 20
Plant response rating, Surinam Grass (surinam grass; 125 g ai/ha): 20
Crabgrass, Brazil plant response rating (Brazilian crabgrass [1]; 16 g ai/ha): 0
Crabgrass, Brazil plant response rating (Brazilian crabgrass [1]; 31 g ai/ha): 20
Crabgrass, Brazil plant response rating (Brazilian crabgrass [1]; 62 g ai/ha): 75
Plant response rating, Crabgrass, Brazil (Brazilian crabgrass [1]; 125 g ai/ha): 100
Panicum, Fall plant response rating (fall panicum; 31 g ai/ha): 0
Panicum, Fall plant response rating (fall panicum; 62 g ai/ha): 30
Plant response rating, Panicum, Fall (fall panicum; 125 g ai/ha): 98
Foxtail, Giant plant response rating (giant foxtail; 16 g ai/ha): 0
Foxtail, Giant plant response rating (giant foxtail; 31 g ai/ha): 20
Foxtail, Giant plant response rating (giant foxtail; 62 g ai/ha): 60
Plant response rating, Foxtail, Giant (giant foxtail; 125 g ai/ha): 95
Foxtail, Green plant response rating (green foxtail; 16 g ai/ha): 0
Foxtail, Green plant response rating (green foxtail; 31 g ai/ha): 25
Foxtail, Green plant response rating (green foxtail; 62 g ai/ha): 60
Plant response rating, Foxtail, Green (green foxtail; 125 g ai/ha): 100
Barnyardgrass plant response rating (barnyardgrass [2]; 16 g ai/ha, preemergence): 0
Barnyardgrass plant response rating (barnyardgrass [2]; 31 g ai/ha, preemergence): 0
Barnyardgrass plant response rating (barnyardgrass [2]; 62 g ai/ha, preemergence): 0
Plant response rating, Barnyardgrass (barnyardgrass [2]; preemergence, 125 g ai/ha): 65
Morningglory plant response rating (morningglory; 31 g ai/ha): 65
Morningglory plant response rating (morningglory; 62 g ai/ha): 35
Plant response rating, Morningglory (morningglory; 125 g ai/ha): 98
Nightshade plant response rating (nightshade; 31 g ai/ha): 50
Nightshade plant response rating (nightshade; 62 g ai/ha): 80
Plant response rating, Nightshade (nightshade; 125 g ai/ha): 95
Kochia plant response rating (kochia; 31 g ai/ha): 0
Kochia plant response rating (kochia; 62 g ai/ha): 75
Plant response rating, Kochia (kochia; 125 g ai/ha): 100
